Measured values taken from US20260009065A1, “COMPOSITIONS FOR EXPOSING FILM-FORMING MICROBES AND METHODS FOR USE OF THE COMPOSITIONS” (Guild Associates Inc., priority 2022, published 2026).

Assays:
S. proteamaculans [1] = assay: Treatment Toxicity (ATP luminescence of cell free supernatant, BacTiterGlo), biofilm; format: cell-based, Serratia proteamaculans; conditions: for Treatment Toxicity % Ctr: Biofilm Lifestyle
Method: These enzyme combinations were tested for bacterial cell release from enzyme-treated biofilms. Post-enzyme exposure sample overlying solutions were collected and centrifuged to collect bacterial cells released by the enzyme treatment. The supernatants were removed, and the cell pellet resuspended in PBS and ATP luminescence was determined and compared to non-enzyme treated controls. Preferred enzyme pairs were expected to release more cells than untreated controls. Additionally, because maintaining extracted microbe viability was important, the ATP luminescence of the post-centrifugation cell free supernatants were also determined and compared to untreated controls. ATP is normally sequestered inside of cells so the presence of substantially more ATP in the cell free supernatant of enzyme treated biofilms indicates the enzyme treatment may have had toxic effects on the treated bacteria.
(§1) Treatment Toxicity: To measure cell toxicity the ATP luminescence of the post-centrifugation cell free supernatants were also determined using the BacTiterGlo Microbial Cell Viability Assay (Promega) and compared to untreated controls to give a percent control value shown. Values over 100% are viewed negatively as potential toxic effects of an enzyme treatment.
(§2) With both growth lifestyles a clear dose response curve is evident.

S. proteamaculans [2] = assay: Sanitizing agent treatment, single species biofilm controls in multi-species biofilm testing; format: cell-based, Serratia proteamaculans; conditions: 100 ug/ml BZAC
Method: Multi-species biofilms were screened by treatment with a sanitizing agent to identify species combinations that show heightened resistance. The multi-species biofilm with the most resistance to the sanitizer was used to screen three (3) enzyme combinations for anti-biofilm and bacterial release testing of the six (6) top performing two (2) enzyme combinations tested earlier. Non-nuclease enzymes were tested at two (2) different concentrations. Each three-enzyme combination was also compared to each of the two-enzyme combination core pair to try to identify synergy of the three-enzyme combination over the two-enzyme combination.
as §2

S. proteamaculans [3] = assay: Treatment Toxicity Assay (ATP luminescence), planktonic lifestyle; format: cell-based, Serratia proteamaculans
Method: as §1, §2

S. enterica = assay: Crystal Violet assay, two-enzyme treatment of mono-species biofilm; format: cell-based, Salmonella enterica; conditions: enzyme combined w/nuclease; Crystal Violet assay vs untreated control
Method: (§3) Applicant's initial testing was carried out with combinations of two (2) enzymes rather than a single enzyme with a nuclease present in all enzyme combinations. DNase I, a specific commonly utilized DNA nuclease, was selected as a universal enzyme. Both DNase I and other DNA nucleases were compared and formulated to have equivalent activity and then used interchangeably in the research. Nuclease was tested against all seven (7) species at three (3) concentrations and then the most overall effective concentration was used in two (2) enzyme testing. Initial two (2) enzyme testing utilized traditional mono-species biofilms of the 7 species in Table 1. The nuclease was also always tested alone in all experiments allowing some determination of its contribution to the resulting antibiofilm activity. Non-nuclease enzymes were tested at 3 concentrations while the nuclease concentration was held constant. Anti-biofilm activity was measured using the Crystal Violet assay, an easy and ubiquitous assay used for measuring changes in biofilm magnitude in the biofilm research industry.
(§4) The results of the initial two enzyme combination testing using the Crystal Violet assay is given in Table 3 and are given as a percent of the untreated control Crystal Violet signal.

L. monocytogenes = assay: as above; format: cell-based, Listeria monocytogenes; conditions: enzyme combined w/nuclease; Crystal Violet assay vs untreated control
Method: as §3, §4

A. JohnsonII = assay: as above; format: cell-based, Acinetobacter johnsonii; conditions: enzyme combined w/nuclease; Crystal Violet assay vs untreated control
Method: as §3, §4

L. plantarum = assay: as above; format: cell-based, Lactobacillus plantarum; conditions: enzyme combined w/nuclease; Crystal Violet assay vs untreated control
Method: as §3, §4

E. coli = assay: as above; format: cell-based, Escherechia coli O157:H7; conditions: enzyme combined w/nuclease; Crystal Violet assay vs untreated control
Method: as §3, §4

[4] = tested on: S. proteamaculans biofilms; assay: Crystal Violet assay, enzyme treatment of single species biofilm; format: cell-based, Serratia proteamaculans; conditions: enzyme combined w/nuclease; Crystal Violet assay vs untreated control
Method: as §3
Therefore, three-enzyme combinations were also tested against single species biofilms of this species.
as §4

7-species = assay: Crystal Violet assay, average over the 7 mono-species biofilms; format: cell-based; conditions: enzyme combined w/nuclease; average over species tested
Method: as §3, §4

Substance	Treatment Toxicity % Ctr (S. proteamaculans [1]; 1 μg/ml BZAC) [% Ctr]	Treatment Toxicity % Ctr (S. proteamaculans [1]; 10 μg/ml BZAC) [% Ctr]	Treatment Toxicity % Ctr (S. proteamaculans [1]; 100 μg/ml BZAC) [% Ctr]	cell-free ATP luminescence relative to untreated control biofilms (S. proteamaculans [1]; functionally active concentrations, a representative species)	biofilm reduction by sanitizer treatment (S. proteamaculans [2])	Treatment Toxicity % Ctr (S. proteamaculans [3]; 1 μg/ml BZAC) [% Ctr]	Treatment Toxicity % Ctr (S. proteamaculans [3]; 10 μg/ml BZAC) [% Ctr]	Treatment Toxicity % Ctr (S. proteamaculans [3]; 100 μg/ml BZAC) [% Ctr]	Biofilm Reduction Due to Enzyme Cocktail Treatment, S. enterica (S. enterica) [%]	Biofilm Reduction Due to Enzyme Cocktail Treatment, L. monocytogenes (L. monocytogenes) [%]	Biofilm Reduction Due to Enzyme Cocktail Treatment, A. JohnsonII (A. JohnsonII) [%^]	Biofilm Reduction Due to Enzyme Cocktail Treatment, L. plantarum (L. plantarum) [%]	Biofilm Reduction Due to Enzyme Cocktail Treatment, E. coli (E. coli) [%]	Biofilm Reduction Due to Enzyme Cocktail Treatment, S. proteamaculens [4] [%]	Biofilm Reduction Due to Enzyme Cocktail Treatment, 7-species average (7-species) [%]
Benzalkonium chloride [BZAC]	1250.5	150.8	793.3	over twelve-fold higher	consistently show biofilm reduction	859.3	284.9	724.9	–	–	–	–	–	–	–
Cellulase	–	–	–	–	–	–	–	–	10	0	22.4	0	0	0	5
